Source: patent US20120301551A1, “COMPOUNDS AND COMPOSITIONS FOR TREATING NEURONAL DEATH OR NEUROLOGICAL DYSFUNCTION” (Neurotech Pharmaceuticals Co., Ltd., priority 2005, published 2012)
Where “and” joins values, the source holds several entries; their conditions need not be identical. Equal values may be shown once. Entries after “also recorded” stand apart in the source; their conditions may differ.

Key:
[1] = system: G93A transgenic mice; type: in vivo, mouse
Experimental: Animals were daily fed with 2-hydroxy TTBA (30 mg/kg/d), 0.2% lithium carbonate (200 mg/kg/d, Li), or a combination of both (2-hydroxy TTBA+Li) from 8 weeks of age in diet.
Animals were daily fed with 2-hydroxy TTBA (30 mg/kg/d), 0.2% lithium carbonate (Li), or a combination of both (2-hydroxy TTBA+Li) from 8 weeks of age in diet.
C & D: (C) Bright-field photomicrographs of cresyl violet-stained ventral horn sections from the wild type (a), or G93AA transgenic mice treated with vehicle (b), or with a combination of 2-hydroxy TTBA+Li (c) at 16 weeks of age.

[2] = system: mixed cortical cell cultures containing neurons and glia; test: BSO-induced free radical neurotoxicity in mixed cortical cell cultures (LDH release); type: cell-based, mouse; conditions: for BSO-induced free radical neurotoxicity, effect in words: 10 mM BSO, 24 hr, 2-Hydroxy-TTBA or 2-Hydroxy-TPEA at doses as low as 0.3 μM, Li^+ 10 mM (legend 5 mM); for BSO-induced neuronal death (oxidative stress), effect in words: FIG. 5A: 10 mM BSO, 24 h, 1 μM 2-hydroxy TTBA (submicromolar), 5 mM Li^+
Experimental: Mouse cortical cell cultures (DIV 11-15) were exposed to 10 mM BSO, alone or with indicated doses of 2-Hydroxy-TTBA or 2-Hydroxy-TPEA. Neuronal death was analyzed 24 hr later by measuring levels of LDH released into the bathing medium, mean±SEM (n=9-12 culture wells per condition). *, Significant difference from BSO alone, p<0.05 using ANOVA and Student-Newman-Keuls test.
(§1) Mouse cortical cell cultures (DIV 11-15) were exposed to 50 μM Fe^2+ or 10 mM BSO, alone or with inclusion of 5 mM Li^+. Neuronal death was analyzed 24 hr later by measuring levels of LDH released into the bathing medium, mean±SEM (n=9-12 culture wells per condition).
Mouse cortical cell cultures (DIV 11-15) were exposed to 30 μM Fe^2+ or 10 mM BSO, alone or in the presence of 1 μM 2-hydroxy TTBA, 10-100 μM vitamin E, or 5 mM Li^+. Neuronal death was analyzed 24 h later by measuring LDH efflux in the bathing media (mean±SEM, n=12). *, Significant difference from the relevant control (Fe^2+ or BSO alone), p<0.05 using ANOVA and Student-Newman-Keuls test.
For mixed neuron-glia culture, mouse cerebral cortices were removed from brains of the 11-15 day-old-fetal mice (E11-15), gently triturated and plated on 24 well plates (2×10^5 cells/plate) precoated with 100 μg/ml poly-D-lysine and 4 pg/ml laminin. Cultures were maintained at 37° C. in a humidified 5% CO2 atmosphere. Plating media consist of Eagles minimal essential media (MEM, Earles salts, supplied glutamine-free) supplemented with 5% horse serum, 5% fetal bovine serum, 26.5 mM bicarbonate, 2 mM glutamine, and 21 mM glucose.
After 7-8 days in vitro (DIV 7-8), 10 μM cytosine arabinofuranoside (Ara-C) was included to halt overgrowth of glia. The drug treatment was carried on DIV 11-15 cortical cell culture. Overall neuronal cell injury was assessed by measuring amount of lactate dehydrogenase (LDH) released into the bathing medium 24 hr after neurotoxic insults as previously described (Koh and Choi, J Neurosci Methods 20:83-90, 1987).
Oxidative stress was induced by exposing mixed cortical cell cultures containing neurons and glia (DIV 11-15) to 50 μM FeCl2, a hydroxyl radical-producing transition metal via a Fenton reaction, or 10 mM DL-buthionine-[S,R]-sulfoximine (BSO), a glutathione depleting agent. Widespread neuronal death was observed 24 hours later. […] Administration of vitamin E prevented Fe^2+-induced free radical neurotoxicity at higher doses. This implies that 2-Hydroxy-TTBA or 2-Hydroxy-TPEA is a potent neuroprotectant against oxidative stress.

[3] = system: cortical cell cultures containing neurons and glia; test: cyclosporine A or calyculin A-induced neuronal cell apoptosis in cortical cell cultures; type: cell-based, mouse; conditions: 20 μM cyclosporine A, 24 hr; 100 μM Vitamin E, 1 μM 2-hydroxy-TTBA, 1 μM 2-hydroxy-TPEA
Experimental: Mouse cortical cell cultures (DIV 10-12) were exposed to 20 μM cyclosporine A or 10 nM calculin A, alone or with inclusion of 0.3-30 mM Li. Neuronal death was analyzed 24-28 hr later by measuring levels of LDH released into the bathing medium, mean±SEM (n=9-12 culture wells per condition).
Mouse cortical cell cultures (DIV 10-12) were exposed to 20 μM cyclosporine A, alone or with 100 μM Vitamin E, 1 μM 2-hydroxy-TTBA, or 1 μM 2-hydroxy-TPEA. Neuronal death was analyzed 24 hr later by measuring levels of LDH released into the bathing medium, mean±SEM (n=9-12 culture wells per condition).
Cortical cell cultures containing neurons and glia at 10-12 days in vitro (DIV 10-12) were exposed to 20 μM cyclosporine A (CsA) or 10 nM caliculin A (cal A). Neurons underwent widespread apoptosis 24 hr later as previously reported (McDonald et al., 1996; Ko et al., 2000). […] This implies that Li^+ and the neuroprotective drugs (vitamin E, trolox, BAS, CBAS, FBAS, TBAS, PBAS, MBAS, NPAA, NPPAA, 2-Hydroxy-TTBA, and 2-Hydroxy-TPEA) selectively prevent neuronal cell apoptosis and free radical-mediated necrosis, respectively.

[4] = system: mixed cortical cell cultures containing neurons and glia; test: Fe2+-induced free radical neurotoxicity in mixed cortical cell cultures (LDH release); type: cell-based, mouse; conditions: for Fe^2+-induced free radical neurotoxicity, effect in words: 50 μM Fe^2+, 24 hr, 2-Hydroxy-TTBA or 2-Hydroxy-TPEA at doses as low as 0.3 μM, vitamin E at higher doses, Li^+ 10 mM (legend 5 mM); for Fe^2+-induced neuronal death (oxidative stress), effect in words: FIG. 5A: 30 μM Fe^2+, 24 h, 1 μM 2-hydroxy TTBA (submicromolar), 5 mM Li^+; for IC50: Mus musculus, Neuron, 50 μM FeCl2, neuronal death 24 hr later (LDH), read-out: IC50 (50% protection against Fe^2+-induced free radical neurotoxicity)
Experimental: as §1
Mouse cortical cell cultures (DIV 11-15) were exposed to 30 μM Fe^2+ or 10 mM BSO, alone or in the presence of 1 μM 2-hydroxy TTBA, 10-100 μM vitamin E, or 5 mM Li^+.
For mixed neuron-glia culture, mouse cerebral cortices were removed from brains of the 11-15 day-old-fetal mice (E11-15), gently triturated and plated on 24 well plates (2×10^5 cells/plate) precoated with 100 μg/ml poly-D-lysine and 4 pg/ml laminin. Cultures were maintained at 37° C. in a humidified 5% CO2 atmosphere.
After 7-8 days in vitro (DIV 7-8), 10 μM cytosine arabinofuranoside (Ara-C) was included to halt overgrowth of glia. The drug treatment was carried on DIV 11-15 cortical cell culture.
Oxidative stress was induced by exposing mixed cortical cell cultures containing neurons and glia (DIV 11-15) to 50 μM FeCl2, a hydroxyl radical-producing transition metal via a Fenton reaction, or 10 mM DL-buthionine-[S,R]-sulfoximine (BSO), a glutathione depleting agent.

[5] = 2-hydroxy TTBA 30 mg/kg/d, 0.2% lithium carbonate, or both, in diet from 8 weeks of age, n=13

Row | SMILES | Mortality (survival) [1, 5] | Onset from PaGE [1, 5] | Onset from Rotarod [1, 5] | weight loss, % of the wild type ([1]; G93A mice at 18 weeks of age, oral administration in diet) | extension reflex, motor strength, and coordination ([1]; G93A mice, drug in diet) | degeneration (loss) of ventral motor neurons in lumbar spinal cord ([1]; at 16 weeks of age) | motor performance versus vehicle-treated control ([1]; from 11 weeks to 18 weeks, in the diet) | BSO-induced free radical neurotoxicity, effect in words [2] | BSO-induced neuronal death (oxidative stress), effect in words ([2]; listed as 2-hydroxy TTBA) | BSO-induced neuronal death (oxidative stress), effect in words ([2]; listed as 2-hydroxy-TTBA) | cyclosporine A-induced neuronal cell apoptosis, effect in words [3] | Fe^2+-induced free radical neurotoxicity, effect in words [4] | Fe^2+-induced neuronal death (oxidative stress), effect in words ([4]; listed as 2-hydroxy TTBA) | Fe^2+-induced neuronal death (oxidative stress), effect in words ([4]; listed as 2-hydroxy-TTBA) | IC50 [4] | neuroprotective effect against Fe^2+-induced oxidative neuronal death relative to vitamin E ([4]; higher than vitamin E)
1 | O=C(O)c1cc(NCc2c(F)c(F)c(C(F)(F)F)c(F)c2F)ccc1O [2-Hydroxy-TTBA, 2-hydroxy-5-(2,3,5,6-tetrafluoro-4-trifluoromethyl-benzylamino)-benzoic acid] | 143.8 days and 143.8^a ± 2.83 days | 114.1 days and 114.1^a ± 2.02 days | 112.3 days and 112.3^a ± 2.89 days | 41% | improved | 57% | better motor performance | nearly completely blocked | prevents oxidative stress | completely blocked | not attenuated; also recorded: do not attenuate | nearly completely blocked | prevents oxidative stress | completely blocked | 110 nM | 220 times
2 | O=C(O)c1cc(NCCc2ccc(C(F)(F)F)cc2)ccc1O [chemical 01, 2-Hydroxy-5-[2-(4-trifluoromethyl-phenyl)-ethylamino]-benzoic acid] | – | – | – | – | – | – | – | nearly completely blocked | – | – | not attenuated; also recorded: do not attenuate | nearly completely blocked | – | – | 99 nM | –
